Laboratory results published in US20210363495A1, “CULTURE MEDIA FOR PLURIPOTENT STEM CELLS” (Yeda Research and Development Co. Ltd., priority 2019, published 2021).

Experiments:
human naïve PSCs [1] = experiment: RT-PCR analysis for naïve pluripotency markers; type: cell-based; details: ENHSM with and without P38i/JNKi, normalized to ACTIN, primed set as 1
Description: (§1) FIGS. 2A-I. Optimizations for enhanced human naive pluripotency conditions. A. W3G4 METTL3 TET-OFF cells were maintained in the presence of DOX for up to 4 passages in different conditions and stained for OCT4 to quantify percentage of cells that retained their pluripotency. […] B. Quantification of ΔPE-OCT4-GFP knock in naïve pluripotency reporter, in variety of primed (red) and naïve conditions (blue). Mean fluorescence intensity values (MFI) are indicated. […] C. Quantification of ΔPE-OCT4-GFP knock in naïve pluripotency reporter, in optimized naïve conditions and various concentrations of GSK3 inhibitor that leads to WNT activation (CHIR99021 is used as GSK3 inhibitor and is abbreviated as CHIR). […] D. Phase images showing how supplementation of 0.2% Geltrex (Life Technologies) in the growth media and SRCi additively enhance domed like morphology of human naïve PSCs in ENHSM conditions optimized herein. E. RT-PCR analysis for naïve pluripotency markers in ENHSM conditions with and without P38i/JNKi (BIRB0796). Values were normalized to ACTIN and values in Primed conditions were set as 1. […] F. W3G4 METTL3 TET-OFF cells were maintained in the presence of DOX for up to 4 passages in the optimized ENHSM conditions but without TNKi, in order to see if other molecules can substitute for TNKi after all optimizations were applies (e.g. adding of Geltrex, concentration optimization). […]

[2] = tested on: WIBR3 hESC line carrying ΔPE-OCT4-GFP reporter; experiment: ΔPE-OCT4-GFP knock in naïve pluripotency reporter quantification; type: cell-based, human
Description: as §1

human naïve PSCs [3] = experiment: Pluripotency maintenance of naïve cells in ENHSM supplemented with CHIR; type: cell-based; details: ENHSM plus CHIR; TGFB inhibition, depleted DNA and RNA methylation or no L-Glutamine
Description: The present inventors next aimed to define the signaling pathway downstream of Tankyrase inhibition facilitating human naïve PSCs stabilization. Bcat-KO ESCs had higher levels of Oct4-GFP in ENHSM condition, and upon removal of XAV939 GFP level was not decreased in KO, but in WT ESCs. A similar trend was shown in RT-PCR analysis. Supplementing naïve cells with WNT stimulator compromised delta-PE-OCT4-GFP levels, compromised their domed shape like morphology and their transcriptional profile. Using a tamoxifen induced Beta-Catenin-ERT transgene, the present inventors noted that delta-PE-OCT4-GFP signal and domed morphology were compromised upon tamoxifen stimulation. […] Similarly, while KO of TCF3 boosts mouse naïve pluripotency and alleviates the need for WNT stimulation, TCF3 KO ESCs still required WNTi and/or SRCi to maintain their naïve identity in humans. […] Collectively, these findings clearly establish WNT as a priming agent for human, but not mouse, naïve pluripotency and establish that KO of beta-catenin can substitute for Tankyrase inhibition.

primed human PSCs = experiment: Single cell cloning efficiency; type: cell-based; details: primed cells, ROCK inhibitor used
PKCα = PKCα (Homo sapiens, UniProt P17252); details: cited from earlier work
PKCβ = PKCβ (Homo sapiens, UniProt P05771); details: cited from earlier work
PKCγ [4] = target: PKCγ (Homo sapiens, UniProt P05129); details: third value of the list; cited from earlier work
PKCγ [5] = details: fourth value of the list; read-out: IC50 PKCγ (second mention); cited from earlier work
PKCζ = target: T1, PKCζ (Homo sapiens, UniProt Q05513); details: cited from earlier work
T1 sequence (Q05513 1-592): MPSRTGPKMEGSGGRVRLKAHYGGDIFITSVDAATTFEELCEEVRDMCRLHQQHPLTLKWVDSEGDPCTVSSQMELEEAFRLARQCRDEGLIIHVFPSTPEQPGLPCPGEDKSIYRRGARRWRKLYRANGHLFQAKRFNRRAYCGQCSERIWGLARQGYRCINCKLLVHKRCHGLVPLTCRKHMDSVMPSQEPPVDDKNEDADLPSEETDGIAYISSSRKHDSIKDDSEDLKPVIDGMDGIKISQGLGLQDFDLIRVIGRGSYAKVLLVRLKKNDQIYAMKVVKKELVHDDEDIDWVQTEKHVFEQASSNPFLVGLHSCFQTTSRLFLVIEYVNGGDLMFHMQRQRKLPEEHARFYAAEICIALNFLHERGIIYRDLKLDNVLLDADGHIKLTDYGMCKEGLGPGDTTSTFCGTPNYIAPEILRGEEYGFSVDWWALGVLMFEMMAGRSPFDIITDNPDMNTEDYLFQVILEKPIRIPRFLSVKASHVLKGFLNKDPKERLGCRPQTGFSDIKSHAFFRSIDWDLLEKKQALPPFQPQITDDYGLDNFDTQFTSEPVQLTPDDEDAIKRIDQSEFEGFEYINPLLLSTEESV

PKCμ = target: T2, PKCμ (Homo sapiens, UniProt Q15139); details: cited from earlier work
T2 sequence (Q15139 1-912): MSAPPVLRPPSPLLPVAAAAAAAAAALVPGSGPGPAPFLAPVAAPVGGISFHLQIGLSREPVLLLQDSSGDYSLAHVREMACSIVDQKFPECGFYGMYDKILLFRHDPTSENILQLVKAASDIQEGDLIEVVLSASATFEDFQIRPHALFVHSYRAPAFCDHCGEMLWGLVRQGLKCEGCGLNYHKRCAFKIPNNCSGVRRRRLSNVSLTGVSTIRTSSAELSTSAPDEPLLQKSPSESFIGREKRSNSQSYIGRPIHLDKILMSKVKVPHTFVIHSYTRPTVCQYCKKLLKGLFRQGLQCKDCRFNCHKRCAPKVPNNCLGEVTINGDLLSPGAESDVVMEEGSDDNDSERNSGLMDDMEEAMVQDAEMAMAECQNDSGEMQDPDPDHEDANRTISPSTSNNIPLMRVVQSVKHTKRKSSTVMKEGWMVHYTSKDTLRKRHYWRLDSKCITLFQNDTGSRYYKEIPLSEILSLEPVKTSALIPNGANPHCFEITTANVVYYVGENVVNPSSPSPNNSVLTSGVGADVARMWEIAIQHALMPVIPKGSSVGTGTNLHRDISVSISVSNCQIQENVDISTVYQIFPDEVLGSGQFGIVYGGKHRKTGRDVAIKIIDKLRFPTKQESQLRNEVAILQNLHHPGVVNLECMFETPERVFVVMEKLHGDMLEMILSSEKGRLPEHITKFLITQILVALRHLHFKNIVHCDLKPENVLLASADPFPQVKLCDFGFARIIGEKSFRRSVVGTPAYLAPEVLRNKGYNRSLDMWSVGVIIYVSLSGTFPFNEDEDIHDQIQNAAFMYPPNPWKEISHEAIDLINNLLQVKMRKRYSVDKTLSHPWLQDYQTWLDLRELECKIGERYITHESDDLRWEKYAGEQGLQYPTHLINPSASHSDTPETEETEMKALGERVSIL

[6] = tested on: Tet-OFF-METTL3 hESCs (WIBR3, clone W3G4); experiment: Pluripotency (OCT4+) maintenance of Tet-OFF-METTL3 hESCs in the presence of DOX; type: cell-based, human; details: individual small molecule supplemented to NHSM, Geltrex coated plates, no MEFs
Description: FIGS. 1A-I Defining enhanced human naive conditions compatible with expanding METTL3 depleted PSCs. A. Strategy for generating human ESCs with TET-OFF regulated expression of METTL3 m^6A methyltransferase enzyme. B. Western blot analysis for correctly engineered human ESCs with TET-OFF METTL3 regulation, before and after DOX treatment. C. Representative images for human METTL3 TET-OFF engineered cells in different conditions with or without DOX addition. […] D. Scheme depicting strategy for conducting a screen for identifying a small molecule or cytokine additive to previously described human naïve NHSM conditions that allow maintain pluripotency in TET-OFF METTL3 human stem cells after adding DOX. E. W3G4 cells were maintained in the presence of DOX for up to 4 passages in different conditions and stained for OCT4 to quantify percentage of cells that retained their pluripotency. […] F. OCT4+ pluripotency maintenance in NHSM conditions supplemented with various TNK inhibitors and DOX to repress METTL3 expression. G. Quantification of ΔPE-OCT4-GFP knock in naïve pluripotency reporter, in variety of primed (red) and naïve conditions (blue). Mean fluorescence intensity values (MFI) are indicated. H. Quantification of ΔPE-OCT4-GFP knock in naïve pluripotency reporter in variety of conditions with various concentrations of ACTIVIN A recombinant cytokine. […] I. Representative phase contrast images in human ESCs expanded in NHSM+TNKi conditions showing their maintenance of pluripotent domed-like morphology even in the presence of FGFRi.
In order to identify culture conditions which capture human naïve PSC, the present inventors looked for agents which are capable of maintaining stem cells in a pluripotent state in the absence of defined epigenetic repressors. Human knock-in WIBR3 hESC lines with conditional inducible ablation expression of METTL3 were engineered (FIG. 1A). This was carried out by introducing an exogenous METTL3 transgene under the regulation of Tet-OFF promoter (Liao et al., 2015), followed by CRISPR/Cas9 mediated ablation of both endogenous human METTL3 alleles. Two resultant clones were validated for METTL3 expression only from the exogenous allele, which can be shut off by addition of DOX to the media (called Tet-OFF-METTL3 lines) (FIG. 1B).
The latter further support rewiring toward naïve pluripotency in NHSM conditions. […] Candidate molecules were tested for the ability to enrich NHSM conditions that allow Tet-OFF-METTL3 to be maintained on Geltrex coated plates in the presence of DOX.
NHSM conditions were supplemented with individual small molecules (FIG. 1D). […] IWR1 is a WNT inhibitor (WNTi) small molecule that stabilizes AXIN protein in the cytoplasm by inhibiting Tankyrase enzyme (abbreviated herein as TNK inhibitor—TNKi).

PKCβ, sequence (P05771 whole entry, species assumed): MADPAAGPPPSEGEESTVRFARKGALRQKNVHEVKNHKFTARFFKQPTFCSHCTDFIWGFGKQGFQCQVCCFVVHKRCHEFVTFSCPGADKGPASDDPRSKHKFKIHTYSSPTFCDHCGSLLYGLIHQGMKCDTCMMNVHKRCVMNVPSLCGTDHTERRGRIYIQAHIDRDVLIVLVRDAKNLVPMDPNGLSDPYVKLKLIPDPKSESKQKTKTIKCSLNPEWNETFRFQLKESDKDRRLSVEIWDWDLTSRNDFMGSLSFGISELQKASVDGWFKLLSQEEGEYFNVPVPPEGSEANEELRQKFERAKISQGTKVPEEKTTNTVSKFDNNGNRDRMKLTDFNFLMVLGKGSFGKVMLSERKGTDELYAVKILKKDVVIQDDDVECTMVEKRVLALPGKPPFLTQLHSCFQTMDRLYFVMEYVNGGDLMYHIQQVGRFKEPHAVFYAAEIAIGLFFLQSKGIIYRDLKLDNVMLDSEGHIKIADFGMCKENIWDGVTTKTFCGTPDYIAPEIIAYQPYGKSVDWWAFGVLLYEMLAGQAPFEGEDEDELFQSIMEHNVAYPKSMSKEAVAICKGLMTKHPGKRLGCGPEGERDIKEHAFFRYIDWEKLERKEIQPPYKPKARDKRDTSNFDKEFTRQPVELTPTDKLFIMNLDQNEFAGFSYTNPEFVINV

Cc1ccc(-n2nc(C(C)(C)C)cc2NC(=O)Nc2ccc(OCCN3CCOCC3)c3ccccc23)cc1 [BIRB0796]
naïve pluripotency marker expression (human naïve PSCs [1]): boosts expression of naïve pluripotency markers

Cc1c[nH]c(-c2cnc(NCCNc3ccc(C#N)cn3)nc2-c2ccc(Cl)cc2Cl)n1 [CHIR99021]
ΔPE-OCT4-GFP intensity ([2]; optimized naïve conditions, various concentrations of GSK3 inhibitor): negatively influences human naive pluripotency
ability to maintain pluripotency (human naïve PSCs [3]): compromised their ability to maintain pluripotency

C[C@@H](N)[C@H]1CC[C@H](C(=O)Nc2ccncc2)CC1 [Condition Y27632]
single cell cloning (primed human PSCs): 10-20%

COc1ccc2c(c1)c(C1=C(c3c[nH]c4ccccc34)C(=O)NC1=O)cn2CCCN(C)C [Go6983]
IC50 (PKCα): 7 nM
IC50 (PKCβ): 7 nM
IC50 (PKCγ [4]): 6 nM
IC50 (PKCγ [5]): 10 nM
IC50 (PKCζ): 60 nM
IC50 (PKCμ): 20000 nM

O=C(Nc1cccc2cccnc12)c1ccc(N2C(=O)[C@@H]3[C@H](C2=O)[C@@H]2C=C[C@H]3C2)cc1 [IWR1]
expansion of Tet-OFF-METTL3 on DOX [6]: enabled the expansion of Tet-OFF-METTL3 on DOX with great homogeneity
ΔPE-OCT4-GFP expression ([2]; TNKi supplemented to NHSM conditions): boosts expression of GFP
